Data: ChEMBL document CHEMBL1158381, “Molecular properties of psychopharmacological drugs determining non-competitive inhibition of 5-HT3A receptors” (Eur J Med Chem, 2009)

molecular target: T1, 5-hydroxytryptamine receptor 3A (Homo sapiens) (UniProt P46098); assay: Antagonist activity at human 5HT3A receptor expressed in HEK293 cells assessed as inhibition of serotonin-induced inward Na+ current at >= 10 uM; format: functional, cell-based
T1 sequence (whole entry): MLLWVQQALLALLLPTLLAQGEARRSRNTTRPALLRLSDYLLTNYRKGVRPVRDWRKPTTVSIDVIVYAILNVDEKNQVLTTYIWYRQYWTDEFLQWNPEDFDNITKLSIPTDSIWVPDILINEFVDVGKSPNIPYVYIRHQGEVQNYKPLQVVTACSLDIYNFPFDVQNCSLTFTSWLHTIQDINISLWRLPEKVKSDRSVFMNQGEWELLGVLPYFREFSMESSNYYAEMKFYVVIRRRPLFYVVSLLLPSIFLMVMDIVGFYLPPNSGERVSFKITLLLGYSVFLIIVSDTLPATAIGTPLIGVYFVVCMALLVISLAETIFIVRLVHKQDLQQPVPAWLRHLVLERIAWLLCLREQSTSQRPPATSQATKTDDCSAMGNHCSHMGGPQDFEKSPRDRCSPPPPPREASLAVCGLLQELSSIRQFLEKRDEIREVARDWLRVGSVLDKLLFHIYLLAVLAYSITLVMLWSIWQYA

CSc1ccc2c(c1)N(CCC1CCCCN1C)c1ccccc1S2 (centres undefined) and OCCN1CCN(CCCN2c3ccccc3Sc3ccc(C(F)(F)F)cc32)CC1 cannot be ordered by inhibition: over 50% for the first, over 50% for the second.

c1ccc2c(c1)Nc1ccccc1S2 and FC(F)(F)c1ccc2c(c1)Nc1ccccc1S2 cannot be ordered by inhibition: under 50% for the first, under 50% for the second.

CCOc1ccccc1O[C@@H](c1ccccc1)[C@@H]1CNCCO1 and CNCCC(Oc1ccc(C(F)(F)F)cc1)c1ccccc1 (centres undefined) cannot be ordered by inhibition: over 50% for the first, over 50% for the second.

NC(=O)N1c2ccccc2C=Cc2ccccc21 and NC(=O)N1c2ccccc2CCc2ccccc21 cannot be ordered by inhibition: under 50% for the first, under 50% for the second.

First: OCCN1CCN(CCC=C2c3ccccc3Sc3ccc(C(F)(F)F)cc32)CC1
Second: COc1ccc2c(c1)N(C[C@H](C)CN(C)C)c1ccccc1S2
The inhibition of the first is higher: over 50% for the first, under 50% for the second.

O=C(CCCN1CCC(O)(c2ccc(Cl)cc2)CC1)c1ccc(F)cc1 and O=C(NCCN1CCOCC1)c1ccc(Cl)cc1 cannot be ordered by inhibition: under 50% for the first, under 50% for the second.

First: c1ccc2c(c1)CCc1ccccc1N2
Second: c1ccc2c(c1)CCc1ccccc1C2
The inhibition of the first is higher: over 50% for the first, under 50% for the second.

CNCCCN1c2ccccc2CCc2ccccc21 and CN(C)CCCN1c2ccccc2CCc2ccccc21 cannot be ordered by inhibition: over 50% for the first, over 50% for the second.

First: Cc1nc2n(c(=O)c1CCN1CCC(c3noc4cc(F)ccc34)CC1)CCCC2
Second: CC(CN(C)C)CN1c2ccccc2CCc2ccccc21 (centres undefined)
The inhibition of the first is lower: under 50% for the first, over 50% for the second.

Molecule c1ccc2nc3ccccc3cc2c1 has an inhibition of under 50%.
